# What was measured:
# [1] = system: Heparin; test: Clotting time of activated plasma in the presence of heparin; assay type: biochemical; design: unit not given here; conditions: heparin 1 unit, 0.2 ug/ml
# [2] = system: low molecular weight heparin (LMWH, Innohep); test: Clotting time of activated plasma in the presence of LMWH; assay type: biochemical; conditions: for Clotting time of activated plasma: LMWH 4.6 ug/ml
# [3] = system: Candida albicans ATCC 10231; test: Antifungal growth assay (MIC100), Candida albicans; assay type: cell-based; conditions: ATCC10231, 20 h
# Protocol: (§1) Several different genera of fungi were tested for their sensitivity to a set of salicylamide and arylamide oligomers. Both non-filamentous (yeast) and filamentous fungi were tested and specific fungi that are associated with various types of human infections were chosen for the screen (Table 4). […] All growth assays were done in a total of 1 ml volumes and growth was assessed by turbidity measurements. Other assay conditions are described in Table 6.
# [4] = system: Aspergillus fumigatus ATCC 1028; test: Antifungal growth assay (MIC100), Aspergillus fumigatus; assay type: cell-based; conditions: ATCC1028, 48 h, complete inhibition of growth, 2 days, 28° C.
# Protocol: as §1
# [5] = system: Cryptococcus neoformans ATCC 24067; test: Antifungal growth assay (MIC100), Cryptococcus neoformans; assay type: cell-based; conditions: ATCC24067, 48 h, complete inhibition of growth, 2 days, 37° C.
# Protocol: as §1
# [6] = system: Trichophyton mentagrophytes ATCC 9533; test: Antifungal growth assay (MIC100), Trichophyton mentagrophytes; assay type: cell-based; conditions: ATCC9533, 72 h, complete inhibition of growth, 3 days, 28° C.
# Protocol: as §1
# [7] = system: Trichophyton rubrum ATCC 10218; test: Antifungal growth assay (MIC100), Trichophyton rubrum; assay type: cell-based; conditions: ATCC10218, 72 h, complete inhibition of growth, 3 days, 28° C.
# Protocol: as §1
# [8] = system: E. coli (ATCC25922); test: Growth assay (MIC100), E. coli control organism; assay type: cell-based; conditions: Escherichia coli, ATCC25922, 20 h
# Protocol: as §1
# [9] = system: human erythrocytes; test: Hemolysis of human erythrocytes; assay type: cell-based
# Protocol: For example, cytotoxic selectivity can be assessed by determining the hemolytic activity of the polymer or oligomer. Hemolytic activity assays are performed by measuring the degree of hemolysis of human erythrocytes following incubation in the presence of the polymer or oligomer and determining HC50 values. […] See also Javadpour, M. M., et al., J. Med. Chem. 39:3107-3113 (1996).
# The toxicity to mammalian cells of polymers and oligomers of the present invention was evaluated using human blood obtained from healthy volunteers, anticoagulated with 0.1 volume of sodium citrate. The general procedure is as follows: Washed erythrocytes are suspended in either HEPES buffer, pH 7.4, containing 1 mM Mg2^+ and 1 mM Ca2^+ or in heated and unheated autologous serum obtained from clotted blood. Red cell agglutination is evaluated microscopically and red cell lysis is evaluated by measuring the amount of released hemoglobin spectroscopically. The effect of polymers on platelet function is studied by adding increasing concentrations of polymer to citrate-anticoagulated platelet-rich plasma. Platelet aggregation and secretion are then evaluated in a lumi-aggregometer (Chrono-Log).
# One distinction is that the studies with Pmx10073 were done in whole blood. […] The concentrations of compound that are cytotoxic for mammalian cells were determined and compared to efficacious concentrations. […]
# [10] = system: E. coli; test: Antimicrobial assay, minimal inhibitory concentration against E. coli
smiles,measurement,setting,value
COc1ccc(NC(=O)C(CCCNC(=N)N)NC(=O)c2cc(NC(=O)C(CCCNC(=N)N)NC(=O)c3cc(NC(=O)C(CCCNC(=N)N)NC(=O)c4cc(NC(=O)C(CCCNC(=N)N)NC(=O)c5cc(N)ccc5OC)ccc4OC)ccc3OC)ccc2OC)cc1C(=O)NC(CCCNC(=N)N)C(N)=O (stereo not drawn) [#3],"Clotting time, Average",[1]; oligomer 4.4 ug/ml,80.3
same,"Clotting time, Trial #1",[1]; oligomer 4.4 ug/ml,72.2
same,"Clotting time, Trial #2",[1]; oligomer 4.4 ug/ml,75.1
same,"Clotting time, Trial #3",[1]; oligomer 4.4 ug/ml,81.2
same,"Clotting time, Trial #4",[1]; oligomer 4.4 ug/ml,92.6
same,"Clotting time, Average",[1]; oligomer 44.4 ug/ml,36.8
same,"Clotting time, Trial #1",[1]; oligomer 44.4 ug/ml,38.7
same,"Clotting time, Trial #2",[1]; oligomer 44.4 ug/ml,34.1
same,"Clotting time, Trial #3",[1]; oligomer 44.4 ug/ml,38.6
same,"Clotting time, Trial #4",[1]; oligomer 44.4 ug/ml,35.6
same,Clotting time of activated plasma,[2]; oligomer 14.8 ug/ml,109.2
CC(C)CCOc1ccc(NC(=O)C(CCCNC(=N)N)NC(=O)c2cc(NC(=O)C(CCCNC(=N)N)NC(=O)c3cc(NC(=O)C(CCCNC(=N)N)NC(=O)c4cc(NC(=O)C(CCCNC(=N)N)NC(=O)c5cc(N)ccc5OCCC(C)C)ccc4OCCC(C)C)ccc3OCCC(C)C)ccc2OCCC(C)C)cc1C(=O)NC(CCCNC(=N)N)C(N)=O (stereo not drawn) [#4],"Clotting time, Average",[1]; oligomer 4.4 ug/ml,169.8
same,"Clotting time, Trial #1",[1]; oligomer 4.4 ug/ml,175.5
same,"Clotting time, Trial #2",[1]; oligomer 4.4 ug/ml,153.8
same,"Clotting time, Trial #3",[1]; oligomer 4.4 ug/ml,157.1
same,"Clotting time, Trial #4",[1]; oligomer 4.4 ug/ml,192.6
same,"Clotting time, Average",[1]; oligomer 44.4 ug/ml,29.2
same,"Clotting time, Trial #1",[1]; oligomer 44.4 ug/ml,31.6
same,"Clotting time, Trial #2",[1]; oligomer 44.4 ug/ml,29.6
same,"Clotting time, Trial #3",[1]; oligomer 44.4 ug/ml,29.6
same,"Clotting time, Trial #4",[1]; oligomer 44.4 ug/ml,26.1
same,Clotting time of activated plasma,[2]; oligomer 0.4 ug/ml,137.7
same,Clotting time of activated plasma,[2]; oligomer 14.8 ug/ml,44.9
CC(C)CC(NC(=O)c1cc(NC(=O)C(CC(C)C)NC(=O)c2cc(NC(=O)C(CC(C)C)NC(=O)c3cc(NC(=O)C(CC(C)C)NC(=O)c4cc(NC(=O)C(CC(C)C)NC(=O)c5cc(N)ccc5OCCNC(=N)N)ccc4OCCNC(=N)N)ccc3OCCNC(=N)N)ccc2OCCNC(=N)N)ccc1OCCNC(=N)N)C(N)=O (stereo not drawn) [#10],"Clotting time, Average",[1]; oligomer 4.4 ug/ml,>400
same,"Clotting time, Trial #1",[1]; oligomer 4.4 ug/ml,113.8
same,"Clotting time, Trial #2",[1]; oligomer 4.4 ug/ml,317.6
same,"Clotting time, Trial #3",[1]; oligomer 4.4 ug/ml,>450
same,"Clotting time, Trial #4",[1]; oligomer 4.4 ug/ml,>450
same,"Clotting time, Average",[1]; oligomer 44.4 ug/ml,38.7
same,"Clotting time, Trial #1",[1]; oligomer 44.4 ug/ml,40.7
same,"Clotting time, Trial #2",[1]; oligomer 44.4 ug/ml,35.6
same,"Clotting time, Trial #3",[1]; oligomer 44.4 ug/ml,36.7
same,"Clotting time, Trial #4",[1]; oligomer 44.4 ug/ml,33.7
same,Clotting time of activated plasma,[2]; oligomer 14.8 ug/ml,97.6
CC(C)CC(N)C(=O)Nc1cc(C(C)(C)C)cc(NC(=O)c2cccc(C(=O)Nc3cc(C(C)(C)C)cc(NC(=O)C(N)CC(C)C)c3SCCN)c2)c1SCCN (stereo not drawn) [#13],"Clotting time, Average",[1]; oligomer 4.4 ug/ml,92.4
same,"Clotting time, Trial #1",[1]; oligomer 4.4 ug/ml,81.2
same,"Clotting time, Trial #2",[1]; oligomer 4.4 ug/ml,88.2
same,"Clotting time, Trial #3",[1]; oligomer 4.4 ug/ml,94.1
same,"Clotting time, Trial #4",[1]; oligomer 4.4 ug/ml,106.2
same,Clotting time of activated plasma,[2]; oligomer 14.8 ug/ml,189.2
CC(C)(C)c1cc2c(OCC(=O)NCCCCCN)c(c1)Cc1cc(C(C)(C)C)cc(c1OCC(=O)NCCCCCN)Cc1cc(C(C)(C)C)cc(c1OCC(=O)NCCCCCN)Cc1cc(C(C)(C)C)cc(c1OCC(=O)NCCCCCN)C2 [#18],"Clotting time, Average",[1]; oligomer 4.4 ug/ml,57.6
same,"Clotting time, Trial #1",[1]; oligomer 4.4 ug/ml,57.6
same,Clotting time of activated plasma,[2]; oligomer 0.4 ug/ml,140.1
same,Clotting time of activated plasma,[2]; oligomer 14.8 ug/ml,48.6
CC(C)CCOc1cc(OCCC(C)C)c(C(=O)NNC(=O)c2cc(C(=O)NCCN(C)C)c(OCCCCCN)cc2OCCCCCN)cc1C(=O)NNC(=O)c1cc(C(=O)NCCN(C)C)c(OCCCCCN)cc1OCCCCCN [#19],"Clotting time, Average",[1]; oligomer 0.4 ug/ml,>400
same,"Clotting time, Trial #1",[1]; oligomer 0.4 ug/ml,>400
same,"Clotting time, Average",[1]; oligomer 1.5 ug/ml,40.2
same,"Clotting time, Trial #1",[1]; oligomer 1.5 ug/ml,43.2
same,"Clotting time, Trial #2",[1]; oligomer 1.5 ug/ml,37.1
same,"Clotting time, Average",[1]; oligomer 4.4 ug/ml,27.9
same,"Clotting time, Trial #1",[1]; oligomer 4.4 ug/ml,29.0
same,"Clotting time, Trial #2",[1]; oligomer 4.4 ug/ml,26.7
same,Clotting time of activated plasma,[2]; oligomer 0.4 ug/ml,64.2
same,Clotting time of activated plasma,[2]; oligomer 1.5 ug/ml,232.8
same,Clotting time of activated plasma,[2]; oligomer 14.8 ug/ml,34
C[C@@H]1[C@H](O)[C@@H](C)/C=C/C=C/C=C/C=C/C=C/C=C/C=C/[C@H](O[C@@H]2O[C@H](C)[C@@H](O)[C@H](N)[C@@H]2O)C[C@@H]2O[C@](O)(C[C@@H](O)C[C@@H](O)[C@H](O)CC[C@@H](O)C[C@@H](O)CC(=O)O[C@H]1C)C[C@H](O)[C@H]2C(=O)O [Amphotericin],MIC,[3],0.1 µg/mL
same,MIC,[4],1 µg/mL
same,MIC,[5],0.1 µg/mL
same,MIC,[6],0.3 µg/mL
same,MIC,[7],1 µg/mL
same,MIC,[8],3 µg/mL
CC(C)(C)c1cc(NC(=O)c2cccc(C(=O)Nc3cc(C(C)(C)C)cc(NC(=O)[C@@H](N)CCCNC(=N)N)c3SCCN)c2)c(SCCN)c(NC(=O)[C@@H](N)CCCNC(=N)N)c1 [Compound 6],HC50 RBC,"[9]; Table 1, arylamide series, one hour incubation, 50% hemoglobin release",715 µg/mL
same,MIC,"[10]; Escherichia coli, read-out: MIC E. coli",6 µg/mL
same,"Antimicrobial activity against E. coli, in words",[10]; text on Tables 1 and 2,highly potent and selective
CC(C)(C)c1cc(NC(=O)c2cc(OCCN)cc(C(=O)Nc3cc(C(C)(C)C)cc(NC(=O)[C@H](N)CCCNC(=N)N)c3SCCN)c2)c(SCCN)c(NC(=O)[C@H](N)CCCNC(=N)N)c1 [Compound 12],Concentration lysing red cells (no lysis up to),[9],> 800 µM
CC(C)CCOc1cc(OCCC(C)C)c(C(=O)NNC(=O)c2cc(C(=O)NCCN(C)C)c(OCCCCCN)cc2OCCCCCN)cc1C(=O)NNC(=O)c1cc(C(=O)NCCN(C)C)c(OCCCCCN)cc1OCCCCCN [Compound 19],"Antagonism of the delay in plasma clotting caused by LMWH, in words","[2]; oligomer 4.4 ug/ml, LMWH (Innohep) 4.6 ug/ml final concentration",significantly antagonized the delay in plasma clotting

# Reference: patent US9241917B2, “Facially amphiphilic polymers and oligomers and uses thereof” (priority 2003, dated 2016)
